Tested on: 521955-158-R2-J5-PDC complex spheroid viability
Assay: Anticancer human tumor 521955-158-R2-J5-PDC patient-derived pancreatic carcinoma cell line growth inhibition [GQUAD]
Details: for IC50: curve of first compound; for viability, T/C: stronger effect = lower value
In short: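 Tumor cells were grown as complex spheroids with HUVEC endothelial cells and mesenchymal stem cells as stroma. G-quadruplex stabilizers were combined with targeted agents over half-log dilutions from near the clinical Cmax, or from 10 microM.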

[1] = second compound 0.0316 µM, first compound 0.0316 µM
[2] = second compound 0.0316 µM, first compound 0.1 µM
[3] = second compound 0.0316 µM, first compound 0.316 µM
[4] = second compound 0.0316 µM, first compound 1 µM
[5] = second compound 0.0316 µM, first compound 3.16 µM
[6] = second compound 0.0316 µM, first compound 10 µM
[7] = second compound 0.1 µM, first compound 0.0316 µM
[8] = second compound 0.1 µM, first compound 0.1 µM
[9] = second compound 0.1 µM, first compound 0.316 µM
[10] = second compound 0.1 µM, first compound 1 µM
[11] = second compound 0.1 µM, first compound 3.16 µM
[12] = second compound 0.1 µM, first compound 10 µM
[13] = second compound 0.316 µM, first compound 0.0316 µM
[14] = second compound 0.316 µM, first compound 0.1 µM
[15] = second compound 0.316 µM, first compound 0.316 µM
[16] = second compound 0.316 µM, first compound 1 µM
[17] = second compound 0.316 µM, first compound 3.16 µM
[18] = second compound 0.316 µM, first compound 10 µM
[19] = second compound 1 µM, first compound 0.0316 µM
[20] = second compound 1 µM, first compound 0.1 µM
[21] = second compound 1 µM, first compound 0.316 µM
[22] = second compound 1 µM, first compound 1 µM
[23] = second compound 1 µM, first compound 3.16 µM
[24] = second compound 1 µM, first compound 10 µM
[25] = second compound 3.16 µM, first compound 0.0316 µM
[26] = second compound 3.16 µM, first compound 0.1 µM
[27] = second compound 3.16 µM, first compound 0.316 µM
[28] = second compound 3.16 µM, first compound 1 µM
[29] = second compound 3.16 µM, first compound 3.16 µM
[30] = second compound 3.16 µM, first compound 10 µM
[31] = second compound 10 µM, first compound 0.0316 µM
[32] = second compound 10 µM, first compound 0.1 µM
[33] = second compound 10 µM, first compound 0.316 µM
[34] = second compound 10 µM, first compound 1 µM
[35] = second compound 10 µM, first compound 3.16 µM
[36] = second compound 10 µM, first compound 10 µM
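Further: spheroids exposed to agents for one week before reading.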
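Wherever viability, T/C is given: 100% = DMSO vehicle control viability.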

Structure (SMILES): C=CCn1c(=O)c2cnc(Nc3ccc(N4CCN(C)CC4)cc3)nc2n1-c1cccc(C(C)(C)O)n1 + CN(C)c1ccc(Nc2c3ccc(NC(=O)CCN4CCCC4)cc3nc3cc(NC(=O)CCN4CCCC4)ccc23)cc1
- IC50 (second compound 0.0316 µM): 189 nM
- IC50 (second compound 0.1 µM): 208 nM
- IC50 (second compound 0.316 µM): 188 nM
- IC50 (second compound 1 µM): 207 nM
- IC50 (second compound 3.16 µM): 201 nM
- IC50 (second compound 10 µM): 401 nM
- viability, T/C [1]: 112%
- viability, T/C [2]: 76.5%
- viability, T/C [3]: 28.2%
- viability, T/C [4]: 16.8%
- viability, T/C [5]: 11.2%
- viability, T/C [6]: 13.4%
- viability, T/C [7]: 107%
- viability, T/C [8]: 85.7%
- viability, T/C [9]: 29.5%
- viability, T/C [10]: 15.5%
- viability, T/C [11]: 14.3%
- viability, T/C [12]: 12.2%
- viability, T/C [13]: 82.6%
- viability, T/C [14]: 80.7%
- viability, T/C [15]: 24.8%
- viability, T/C [16]: 11.6%
- viability, T/C [17]: 14%
- viability, T/C [18]: 15.2%
- viability, T/C [19]: 90.5%
- viability, T/C [20]: 85.2%
- viability, T/C [21]: 29.5%
- viability, T/C [22]: 15.9%
- viability, T/C [23]: 13.4%
- viability, T/C [24]: 16.2%
- viability, T/C [25]: 84.6%
- viability, T/C [26]: 74.4%
- viability, T/C [27]: 33.7%
- viability, T/C [28]: 23.3%
- viability, T/C [29]: 18.6%
- viability, T/C [30]: 13.5%
- viability, T/C [31]: 65.1%
- viability, T/C [32]: 67.6%
- viability, T/C [33]: 53.3%
- viability, T/C [34]: 31.6%
- viability, T/C [35]: 7.79%
- viability, T/C [36]: 1.53%

Structure (SMILES): CC(C)(O)C1CCC(Nc2ccc3ncc(-c4cccc(C(F)(F)F)c4)n3n2)CC1 (stereo unspecified) + CN(C)c1ccc(Nc2c3ccc(NC(=O)CCN4CCCC4)cc3nc3cc(NC(=O)CCN4CCCC4)ccc23)cc1
- IC50 (second compound 0.0316 µM): 2060 nM
- IC50 (second compound 0.1 µM): 2010 nM
- IC50 (second compound 0.316 µM): 2050 nM
- IC50 (second compound 1 µM): 2010 nM
- IC50 (second compound 3.16 µM): 1800 nM
- IC50 (second compound 10 µM): 1280 nM
- viability, T/C [1]: 102%
- viability, T/C [2]: 107%
- viability, T/C [3]: 105%
- viability, T/C [4]: 111%
- viability, T/C [5]: 13.1%
- viability, T/C [6]: 19.7%
- viability, T/C [7]: 101%
- viability, T/C [8]: 103%
- viability, T/C [9]: 98.5%
- viability, T/C [10]: 117%
- viability, T/C [11]: 10.4%
- viability, T/C [12]: 18.7%
- viability, T/C [13]: 106%
- viability, T/C [14]: 88%
- viability, T/C [15]: 113%
- viability, T/C [16]: 113%
- viability, T/C [17]: 16.1%
- viability, T/C [18]: 17.5%
- viability, T/C [19]: 95.4%
- viability, T/C [20]: 107%
- viability, T/C [21]: 95.8%
- viability, T/C [22]: 116%
- viability, T/C [23]: 15.1%
- viability, T/C [24]: 13.6%
- viability, T/C [25]: 82%
- viability, T/C [26]: 87.3%
- viability, T/C [27]: 79.2%
- viability, T/C [28]: 99.5%
- viability, T/C [29]: 13.8%
- viability, T/C [30]: 15%
- viability, T/C [31]: 70.4%
- viability, T/C [32]: 73.1%
- viability, T/C [33]: 64.6%
- viability, T/C [34]: 62.2%
- viability, T/C [35]: 6.61%
- viability, T/C [36]: 1.12%

Structure (SMILES): COc1ncnc(C2CC2)c1-c1ncc2cnn(Cc3ccc(-c4nc(C(F)(F)F)cn4C(C)C)cc3)c2n1 + CN(C)c1ccc(Nc2c3ccc(NC(=O)CCN4CCCC4)cc3nc3cc(NC(=O)CCN4CCCC4)ccc23)cc1
- IC50 (second compound 0.0316 µM): > 10000 nM
- IC50 (second compound 0.1 µM): > 10000 nM
- IC50 (second compound 0.316 µM): > 10000 nM
- IC50 (second compound 1 µM): > 10000 nM
- IC50 (second compound 3.16 µM): > 10000 nM
- IC50 (second compound 10 µM): 4550 nM
- viability, T/C [1]: 113%
- viability, T/C [2]: 103%
- viability, T/C [3]: 116%
- viability, T/C [4]: 114%
- viability, T/C [5]: 135%
- viability, T/C [6]: 140%
- viability, T/C [7]: 97.7%
- viability, T/C [8]: 112%
- viability, T/C [9]: 107%
- viability, T/C [10]: 112%
- viability, T/C [11]: 148%
- viability, T/C [12]: 122%
- viability, T/C [13]: 95.4%
- viability, T/C [14]: 123%
- viability, T/C [15]: 118%
- viability, T/C [16]: 121%
- viability, T/C [17]: 115%
- viability, T/C [18]: 117%
- viability, T/C [19]: 105%
- viability, T/C [20]: 109%
- viability, T/C [21]: 115%
- viability, T/C [22]: 122%
- viability, T/C [23]: 112%
- viability, T/C [24]: 115%
- viability, T/C [25]: 86%
- viability, T/C [26]: 93%
- viability, T/C [27]: 101%
- viability, T/C [28]: 111%
- viability, T/C [29]: 114%
- viability, T/C [30]: 82.8%
- viability, T/C [31]: 74%
- viability, T/C [32]: 74.7%
- viability, T/C [33]: 69.5%
- viability, T/C [34]: 76.7%
- viability, T/C [35]: 68.1%
- viability, T/C [36]: 10.3%

Source: PubChem BioAssay AID2060495 (Molecular Pharmacology Branch, DTP, NCI, 2025)
